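GI50 is the concentration that inhibits growth by half. TGI denotes the concentration required for complete inhibition of growth.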
Experiments:
Assay in all cases: growth of human tumour cells (NCI), 384-well format
T-47D breast = test system: T-47D breast
SK-OV-3 ovarian = test system: SK-OV-3 ovarian
PC-3 prostate = test system: PC-3 prostate
NCI-H522 lung = test system: NCI-H522 lung
HCT-15 colon = test system: HCT-15 colon
UO-31 renal = test system: UO-31 renal
RPMI-8226 leukemia = test system: RPMI-8226 leukemia
K-562 leukemia = test system: K-562 leukemia
OVCAR-8 ovarian = test system: OVCAR-8 ovarian
UACC-257 melanoma = test system: UACC-257 melanoma
MDA-MB-435 melanoma = test system: MDA-MB-435 melanoma
OVCAR-4 ovarian = test system: OVCAR-4 ovarian
786-0 renal = test system: 786-0 renal
EKVX NSCLC = test system: EKVX NSCLC
SK-MEL-5 melanoma = test system: SK-MEL-5 melanoma
A498 renal = test system: A498 renal
HS 578T breast = test system: HS 578T breast
LOX IMVI melanoma = test system: LOX IMVI melanoma
SNB-75 CNS = test system: SNB-75 CNS
NCI-H226 lung = test system: NCI-H226 lung
SF-539 CNS = test system: SF-539 CNS
DU-145 prostate = test system: DU-145 prostate
UACC-62 melanoma = test system: UACC-62 melanoma
SF-268 CNS = test system: SF-268 CNS
SF-295 CNS = test system: SF-295 CNS
TK-10 renal = test system: TK-10 renal
NCI-H23 lung = test system: NCI-H23 lung
MDA-MB-231 breast = test system: MDA-MB-231 breast
A549 NSCLC = test system: A549 NSCLC
MDA-MB-468 breast = test system: MDA-MB-468 breast
NCI-H322M lung = test system: NCI-H322M lung
OVCAR-5 ovarian = test system: OVCAR-5 ovarian
CCRF-CEM leukemia = test system: CCRF-CEM leukemia
HCT-116 colon = test system: HCT-116 colon
RXF 393 renal = test system: RXF 393 renal
IGROV1 ovarian = test system: IGROV1 ovarian
SW-620 colon = test system: SW-620 colon
SNB-19 CNS = test system: SNB-19 CNS
BT-549 breast = test system: BT-549 breast
CAKI-1 renal = test system: CAKI-1 renal
SK-MEL-2 melanoma = test system: SK-MEL-2 melanoma
HT29 colon = test system: HT29 colon
SK-MEL-28 melanoma = test system: SK-MEL-28 melanoma
M14 melanoma = test system: M14 melanoma
MOLT-4 leukemia = test system: MOLT-4 leukemia
MALME-3M melanoma = test system: MALME-3M melanoma
SN12C renal = test system: SN12C renal
COLO 205 colon = test system: COLO 205 colon
KM12 colon = test system: KM12 colon
ACHN renal = test system: ACHN renal
HL-60(TB) leukemia = test system: HL-60(TB) leukemia
NCI/ADR-RES ovarian = test system: NCI/ADR-RES ovarian
OVCAR-3 ovarian = test system: OVCAR-3 ovarian
HCC-2998 colon = test system: HCC-2998 colon
HOP-92 NSCLC = test system: HOP-92 NSCLC
NCI-H460 NSCLC = test system: NCI-H460 NSCLC
SR leukemia = test system: SR leukemia
U251 glioblastoma = test system: U251 glioblastoma
HOP-62 NSCLC = test system: HOP-62 NSCLC

Work on CC(=O)c1ccc2c(c1)c1cc(C(C)=O)ccc1n2CCNC(C)C yielded a GI50 (T-47D breast) of 0.258 µM, a TGI (T-47D breast) of 0.619 µM and a GI50 (SK-OV-3 ovarian) of 0.3 µM. For the same compound, the TGI (SK-OV-3 ovarian) was 1.23 µM, the GI50 (PC-3 prostate) was 0.279 µM and the TGI (PC-3 prostate) was 0.782 µM. It also gave a GI50 (NCI-H522 lung) of 0.152 µM, a TGI (NCI-H522 lung) of 0.307 µM and a GI50 (HCT-15 colon) of 0.206 µM. The TGI (HCT-15 colon) was 0.464 µM, the GI50 (UO-31 renal) was 0.168 µM and the TGI (UO-31 renal) was 0.308 µM. The GI50 (RPMI-8226 leukemia) was 0.164 µM, the TGI (RPMI-8226 leukemia) was 0.303 µM and the GI50 (K-562 leukemia) was 0.178 µM. It also gave a TGI (K-562 leukemia) of 0.405 µM, a GI50 (OVCAR-8 ovarian) of 0.276 µM and a TGI (OVCAR-8 ovarian) of 1.32 µM. The GI50 (UACC-257 melanoma) was 0.182 µM, the TGI (UACC-257 melanoma) was 0.351 µM and the GI50 (MDA-MB-435 melanoma) was 0.32 µM. For the same compound, the TGI (MDA-MB-435 melanoma) was 0.922 µM, the GI50 (OVCAR-4 ovarian) was 0.244 µM and the TGI (OVCAR-4 ovarian) was 0.637 µM. For the same compound, the GI50 ([…]-0 renal) was 0.228 µM, the TGI (786-0 renal) was 0.855 µM and the GI50 (EKVX NSCLC) was 0.409 µM. For the same compound, the TGI (EKVX NSCLC) was 0.931 µM, the GI50 (SK-MEL-5 melanoma) was 0.178 µM and the TGI (SK-MEL-5 melanoma) was 0.322 µM. The GI50 (A498 renal) was 0.182 µM, the TGI (A498 renal) was 0.329 µM and the GI50 (HS 578T breast) was 0.195 µM. It also gave a TGI (HS 578T breast) of 0.376 µM, a GI50 (LOX IMVI melanoma) of 0.192 µM and a TGI (LOX IMVI melanoma) of 0.338 µM. It also gave a GI50 (SNB-75 CNS) of 0.264 µM, a TGI (SNB-75 CNS) of 0.743 µM and a GI50 (NCI-H226 lung) of 0.153 µM. It also gave a TGI (NCI-H226 lung) of 0.308 µM, a GI50 (SF-539 CNS) of 0.228 µM and a TGI (SF-539 CNS) of 0.669 µM. The GI50 (DU-145 prostate) was 0.344 µM, the TGI (DU-145 prostate) was 1.43 µM and the GI50 (UACC-62 melanoma) was 0.17 µM. The TGI (UACC-62 melanoma) was 0.313 µM, the GI50 (SF-268 CNS) was 0.222 µM and the TGI (SF-268 CNS) was 0.618 µM. The GI50 (SF-295 CNS) was 0.309 µM, the TGI (SF-295 CNS) was 1.17 µM and the GI50 (TK-10 renal) was 0.472 µM. It also gave a TGI (TK-10 renal) of 11.7 µM, a GI50 (NCI-H23 lung) of 0.193 µM and a TGI (NCI-H23 lung) of 0.461 µM. The GI50 (MDA-MB-231 breast) was 0.194 µM, the TGI (MDA-MB-231 breast) was 0.446 µM and the GI50 (A549 NSCLC) was 0.189 µM. For the same compound, the TGI (A549 NSCLC) was 0.353 µM, the GI50 (MDA-MB-468 breast) was 0.164 µM and the TGI (MDA-MB-468 breast) was 0.306 µM. It also gave a GI50 (NCI-H322M lung) of 0.234 µM, a TGI (NCI-H322M lung) of 0.543 µM and a GI50 (OVCAR-5 ovarian) of 0.433 µM. The TGI (OVCAR-5 ovarian) was 14.3 µM, the GI50 (CCRF-CEM leukemia) was 0.148 µM and the TGI (CCRF-CEM leukemia) was 0.299 µM. The GI50 (HCT-116 colon) was 0.199 µM, the TGI (HCT-116 colon) was 0.731 µM and the GI50 (RXF 393 renal) was 0.17 µM. It also gave a TGI (RXF 393 renal) of 0.529 µM, a GI50 (IGROV1 ovarian) of 0.48 µM and a TGI (IGROV1 ovarian) of 15.1 µM. It also gave a GI50 (SW-620 colon) of 0.207 µM, a TGI (SW-620 colon) of 0.736 µM and a GI50 (SNB-19 CNS) of 0.279 µM. The TGI (SNB-19 CNS) was 2.65 µM, the GI50 (BT-549 breast) was 0.348 µM and the TGI (BT-549 breast) was 0.932 µM. The GI50 (CAKI-1 renal) was 0.15 µM, the TGI (CAKI-1 renal) was 0.317 µM and the GI50 (SK-MEL-2 melanoma) was 0.263 µM. The TGI (SK-MEL-2 melanoma) was 0.478 µM, the GI50 (HT29 colon) was 0.206 µM and the TGI (HT29 colon) was 1.03 µM. It also gave a GI50 (SK-MEL-28 melanoma) of 0.207 µM, a TGI (SK-MEL-28 melanoma) of 0.435 µM and a GI50 (M14 melanoma) of 0.259 µM. The TGI (M14 melanoma) was 0.665 µM, the GI50 (MOLT-4 leukemia) was 0.0346 µM and the TGI (MOLT-4 leukemia) was 0.101 µM. It also gave a GI50 (MALME-3M melanoma) of 0.172 µM, a TGI (MALME-3M melanoma) of 0.319 µM and a GI50 (SN12C renal) of 0.221 µM. The TGI (SN12C renal) was 0.728 µM, the GI50 (COLO 205 colon) was 0.164 µM and the TGI (COLO 205 colon) was 0.311 µM. The GI50 (KM12 colon) was 0.286 µM, the TGI (KM12 colon) was 2.27 µM and the GI50 (ACHN renal) was 0.101 µM. It also gave a TGI (ACHN renal) of 0.245 µM, a GI50 (HL-60(TB) leukemia) of 0.201 µM and a TGI (HL-60(TB) leukemia) of 0.349 µM. The GI50 (NCI/ADR-RES ovarian) was 0.204 µM, the TGI (NCI/ADR-RES ovarian) was 0.472 µM and the GI50 (OVCAR-3 ovarian) was 0.273 µM. For the same compound, the TGI (OVCAR-3 ovarian) was 0.969 µM, the GI50 (HCC-2998 colon) was 0.311 µM and the TGI (HCC-2998 colon) was 0.811 µM. It also gave a GI50 (HOP-92 NSCLC) of 0.225 µM, a TGI (HOP-92 NSCLC) of 0.656 µM and a GI50 (NCI-H460 NSCLC) of 0.164 µM. The TGI (NCI-H460 NSCLC) was 0.316 µM, the GI50 (SR leukemia) was 0.0338 µM and the TGI (SR leukemia) was 0.0866 µM. For the same compound, the GI50 (U251 glioblastoma) was 0.248 µM, the TGI (U251 glioblastoma) was 0.715 µM and the GI50 (HOP-62 NSCLC) was 0.201 µM. The TGI (HOP-62 NSCLC) was 0.755 µM.
